According to patent US11697648B2, “Fused pyrimidine pyridinone compounds as JAK inhibitors” (THERAVANCE BIOPHARMA R&D IP, LLC, priority 2019, dated 2023):

Columns and labels:
JAK2 = JAK2 (Homo sapiens (Human), UniProt O60674); experiment: Biochemical JAK2 kinase assay (LanthaScreen)
How it was run: (§1)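 GST-JAK + GFP-STAT1 peptide, HEPES pH 7.5/MgCl2/EGTA/Brij-35 buffer; cpd preincubation 1 h RT; ATP start, 1 h RT; stop with 10 mM EDTA + 2 nM Tb-anti-pSTAT1; TR-FRET 520/495. 4-parameter IC50 → pKi (Cheng-Prusoff).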

JAK1 = JAK1 (Homo sapiens (Human), UniProt P23458); experiment: Biochemical JAK1 kinase assay (LanthaScreen)
How it was run: as §1

[1] = test system: IL-2 stimulated STAT5 phosphorylation in Tall-1 human T cell line (JAK3); experiment: Cellular JAK3 potency assay: inhibition of IL-2 stimulated pSTAT5 in Tall-1 T cells; format: cell-based; settings: IL-2 stimulated pSTAT5, Tall-1 T cells
How it was run: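 Tall-1 cells, 45,000 per well, preincubated 1 hour with compound at 37 °C, then stimulated 30 minutes with IL-2 at 300 ng/ml final. pSTAT5 (Tyr694/699) in lysates quantified by AlphaLISA SureFire Ultra. pIC50 derived from inhibition curves, given as mean with SD.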

Caco-2 cell monolayers = experiment: Caco-2 permeation assay; format: in vitro ADME; settings: 5 μM, A-B direction, with Verapamil (25 μM)
Protocol: Assay 4: Caco-2 Permeation Assay
The Caco-2 permeation assay was performed to model the ability of test compounds to pass through the intestine and get into the blood stream after oral administration. The rate at which test compounds in solution permeate a cell monolayer designed to mimic the tight junction of human small intestinal monolayers was determined.
CacoReady 24-well transwell plates were obtained from ADMEcell (Alameda, Calif.). The compounds were evaluated at a concentration of 5 μM from 10 mM DMSO stock solutions in duplicate (n=2). The passive permeability of the compounds tested was evaluated using Caco-2 cell monolayers along with Verapamil (25 μM) to inhibit P-gp transport proteins in the apical to basolateral (A-B) direction. The experiment was conducted in a 37° C., 5% CO2 incubator. Caco-2 culture media consisted of standard filtered DMEM, FCS 10%, L-Glutamine 1% and PenStrep 1%. Basal assay plate was prepared by adding 750 μL of transport buffer to A-B wells. A CacoReady™ plate was prepared by removing the Caco-2 media from the apical wells and replacing with fresh transport media (200 μL repeated for a total of 3 washes). Blank media (200 μL) was then replaced with diluted compound for A-B wells. To begin the incubation, the basal plate was removed from the incubator and the apical section was added on top of it. Samples (40 μL) were collected from the apical and basal compartments for time zero (t0). Samples were collected again after 120 minutes (t120) from the apical and basal compartments. All samples were diluted and prepared for bioanalysis by LC-MS/MS. The permeation coefficient (Kp, mean A to B+ Verapamil Papparent) in cm/sec was calculated as dQ (flux)/(dt×Area×concentration).
In this assay, a Kp value less than about 5×10^−6 cm/sec is considered favorable to minimize systemic exposure and target the colon. A Kp value less than about 10×10^−6 cm/sec may also be sufficient to minimize systemic exposure and target the colon.

JAK3 = JAK3 (Homo sapiens (Human), UniProt P52333); experiment: Biochemical JAK3 kinase assay (LanthaScreen); settings: for JAK3 (pKi)-JAK1 (pKi): selectivity JAK3 over JAK1, difference of pKi
How it was run: as §1

Tyk2 = Tyk2 (Homo sapiens (Human), UniProt P29597); experiment: Biochemical Tyk2 kinase assay (LanthaScreen)
How it was run: as §1

JAK1, sequence (P23458 whole entry): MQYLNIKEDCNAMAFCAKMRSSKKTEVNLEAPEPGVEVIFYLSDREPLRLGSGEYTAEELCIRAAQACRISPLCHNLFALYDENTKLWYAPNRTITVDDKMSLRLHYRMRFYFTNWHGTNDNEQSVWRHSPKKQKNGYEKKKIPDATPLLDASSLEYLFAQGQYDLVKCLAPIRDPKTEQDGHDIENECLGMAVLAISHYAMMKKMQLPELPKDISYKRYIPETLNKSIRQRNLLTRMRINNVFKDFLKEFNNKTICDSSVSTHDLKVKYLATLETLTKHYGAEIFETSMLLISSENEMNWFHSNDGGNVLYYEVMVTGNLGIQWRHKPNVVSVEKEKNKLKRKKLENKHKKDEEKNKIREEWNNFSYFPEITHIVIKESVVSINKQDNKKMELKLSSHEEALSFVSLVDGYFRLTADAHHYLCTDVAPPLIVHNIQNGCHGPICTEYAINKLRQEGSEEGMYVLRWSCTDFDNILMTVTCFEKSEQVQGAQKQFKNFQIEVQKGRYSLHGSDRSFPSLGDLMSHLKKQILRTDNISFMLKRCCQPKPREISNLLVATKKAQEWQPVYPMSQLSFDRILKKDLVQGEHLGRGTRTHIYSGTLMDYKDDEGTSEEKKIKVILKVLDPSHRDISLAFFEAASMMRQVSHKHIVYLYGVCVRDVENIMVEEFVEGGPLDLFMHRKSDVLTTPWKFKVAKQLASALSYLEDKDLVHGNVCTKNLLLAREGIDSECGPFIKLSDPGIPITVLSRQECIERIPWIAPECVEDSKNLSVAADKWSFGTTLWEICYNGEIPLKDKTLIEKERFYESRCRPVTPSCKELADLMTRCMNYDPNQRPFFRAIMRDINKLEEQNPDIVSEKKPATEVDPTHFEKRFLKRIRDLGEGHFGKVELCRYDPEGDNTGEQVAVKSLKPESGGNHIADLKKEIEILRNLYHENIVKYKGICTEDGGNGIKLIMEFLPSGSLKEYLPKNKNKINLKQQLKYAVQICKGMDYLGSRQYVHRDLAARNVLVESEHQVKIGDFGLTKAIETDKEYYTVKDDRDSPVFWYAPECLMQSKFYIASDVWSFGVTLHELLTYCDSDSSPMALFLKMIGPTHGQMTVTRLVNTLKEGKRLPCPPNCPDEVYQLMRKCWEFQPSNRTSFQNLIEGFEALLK
Tyk2, sequence (P29597 whole entry): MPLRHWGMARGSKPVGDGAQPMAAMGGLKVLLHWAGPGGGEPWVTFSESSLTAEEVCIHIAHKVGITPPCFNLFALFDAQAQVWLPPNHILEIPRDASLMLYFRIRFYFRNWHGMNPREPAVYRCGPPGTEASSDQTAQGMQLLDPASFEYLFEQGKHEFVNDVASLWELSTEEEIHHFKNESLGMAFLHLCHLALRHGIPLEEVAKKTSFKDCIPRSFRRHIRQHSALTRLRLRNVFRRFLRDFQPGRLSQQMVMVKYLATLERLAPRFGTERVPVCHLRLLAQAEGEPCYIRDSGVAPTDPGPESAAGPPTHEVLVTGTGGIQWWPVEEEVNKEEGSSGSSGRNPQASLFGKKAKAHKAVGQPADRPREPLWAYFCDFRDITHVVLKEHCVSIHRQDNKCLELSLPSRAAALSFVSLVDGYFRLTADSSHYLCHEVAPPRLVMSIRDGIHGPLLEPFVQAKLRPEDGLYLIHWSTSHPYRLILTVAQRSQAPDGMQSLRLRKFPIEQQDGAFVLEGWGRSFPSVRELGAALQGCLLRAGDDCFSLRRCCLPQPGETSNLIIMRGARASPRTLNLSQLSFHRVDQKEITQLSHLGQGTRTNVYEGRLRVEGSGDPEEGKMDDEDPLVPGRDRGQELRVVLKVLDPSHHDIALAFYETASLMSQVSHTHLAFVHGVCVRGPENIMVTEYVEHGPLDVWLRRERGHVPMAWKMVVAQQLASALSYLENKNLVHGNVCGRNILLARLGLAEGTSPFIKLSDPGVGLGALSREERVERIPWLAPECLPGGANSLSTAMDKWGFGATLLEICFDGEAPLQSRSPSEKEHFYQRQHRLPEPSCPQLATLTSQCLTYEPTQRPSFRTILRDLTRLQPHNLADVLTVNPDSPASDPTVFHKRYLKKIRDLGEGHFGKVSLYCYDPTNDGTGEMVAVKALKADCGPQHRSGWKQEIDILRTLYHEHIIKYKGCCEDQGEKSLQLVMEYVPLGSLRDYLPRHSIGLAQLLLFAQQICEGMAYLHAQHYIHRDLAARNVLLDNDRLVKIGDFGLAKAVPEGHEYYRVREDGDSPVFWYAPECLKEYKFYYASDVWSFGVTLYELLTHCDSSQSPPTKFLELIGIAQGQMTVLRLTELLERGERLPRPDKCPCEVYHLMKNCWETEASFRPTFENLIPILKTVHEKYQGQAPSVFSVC
JAK3, sequence (P52333 whole entry): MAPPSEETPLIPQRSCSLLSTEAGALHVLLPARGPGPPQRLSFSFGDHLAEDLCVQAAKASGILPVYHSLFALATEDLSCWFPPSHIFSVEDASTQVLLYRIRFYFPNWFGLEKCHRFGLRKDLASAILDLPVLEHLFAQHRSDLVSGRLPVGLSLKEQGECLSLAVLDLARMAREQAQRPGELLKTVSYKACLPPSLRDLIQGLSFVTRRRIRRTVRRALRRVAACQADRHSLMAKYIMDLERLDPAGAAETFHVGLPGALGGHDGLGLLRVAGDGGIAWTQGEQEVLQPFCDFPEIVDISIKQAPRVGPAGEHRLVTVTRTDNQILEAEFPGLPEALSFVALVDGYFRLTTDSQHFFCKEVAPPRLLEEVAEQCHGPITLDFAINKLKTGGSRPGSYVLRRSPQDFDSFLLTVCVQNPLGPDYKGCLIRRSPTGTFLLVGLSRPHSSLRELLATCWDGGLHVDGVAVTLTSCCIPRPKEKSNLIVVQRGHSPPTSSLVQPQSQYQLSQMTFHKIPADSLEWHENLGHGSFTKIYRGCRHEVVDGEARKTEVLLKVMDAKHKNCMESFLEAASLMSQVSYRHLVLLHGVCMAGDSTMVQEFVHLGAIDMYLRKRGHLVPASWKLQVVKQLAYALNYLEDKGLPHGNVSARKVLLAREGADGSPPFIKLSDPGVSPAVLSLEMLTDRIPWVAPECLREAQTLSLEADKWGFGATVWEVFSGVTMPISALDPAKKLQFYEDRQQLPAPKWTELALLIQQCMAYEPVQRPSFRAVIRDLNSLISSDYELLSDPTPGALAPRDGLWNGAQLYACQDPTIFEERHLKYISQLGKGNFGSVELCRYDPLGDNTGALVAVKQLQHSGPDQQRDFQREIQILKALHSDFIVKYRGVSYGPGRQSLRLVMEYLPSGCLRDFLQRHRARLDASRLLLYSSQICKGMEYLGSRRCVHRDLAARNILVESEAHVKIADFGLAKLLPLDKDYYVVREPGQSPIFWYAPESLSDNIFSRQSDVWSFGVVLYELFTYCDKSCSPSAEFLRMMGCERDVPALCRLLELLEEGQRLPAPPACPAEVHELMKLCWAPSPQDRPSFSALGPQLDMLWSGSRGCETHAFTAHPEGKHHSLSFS
JAK2, sequence (O60674 whole entry): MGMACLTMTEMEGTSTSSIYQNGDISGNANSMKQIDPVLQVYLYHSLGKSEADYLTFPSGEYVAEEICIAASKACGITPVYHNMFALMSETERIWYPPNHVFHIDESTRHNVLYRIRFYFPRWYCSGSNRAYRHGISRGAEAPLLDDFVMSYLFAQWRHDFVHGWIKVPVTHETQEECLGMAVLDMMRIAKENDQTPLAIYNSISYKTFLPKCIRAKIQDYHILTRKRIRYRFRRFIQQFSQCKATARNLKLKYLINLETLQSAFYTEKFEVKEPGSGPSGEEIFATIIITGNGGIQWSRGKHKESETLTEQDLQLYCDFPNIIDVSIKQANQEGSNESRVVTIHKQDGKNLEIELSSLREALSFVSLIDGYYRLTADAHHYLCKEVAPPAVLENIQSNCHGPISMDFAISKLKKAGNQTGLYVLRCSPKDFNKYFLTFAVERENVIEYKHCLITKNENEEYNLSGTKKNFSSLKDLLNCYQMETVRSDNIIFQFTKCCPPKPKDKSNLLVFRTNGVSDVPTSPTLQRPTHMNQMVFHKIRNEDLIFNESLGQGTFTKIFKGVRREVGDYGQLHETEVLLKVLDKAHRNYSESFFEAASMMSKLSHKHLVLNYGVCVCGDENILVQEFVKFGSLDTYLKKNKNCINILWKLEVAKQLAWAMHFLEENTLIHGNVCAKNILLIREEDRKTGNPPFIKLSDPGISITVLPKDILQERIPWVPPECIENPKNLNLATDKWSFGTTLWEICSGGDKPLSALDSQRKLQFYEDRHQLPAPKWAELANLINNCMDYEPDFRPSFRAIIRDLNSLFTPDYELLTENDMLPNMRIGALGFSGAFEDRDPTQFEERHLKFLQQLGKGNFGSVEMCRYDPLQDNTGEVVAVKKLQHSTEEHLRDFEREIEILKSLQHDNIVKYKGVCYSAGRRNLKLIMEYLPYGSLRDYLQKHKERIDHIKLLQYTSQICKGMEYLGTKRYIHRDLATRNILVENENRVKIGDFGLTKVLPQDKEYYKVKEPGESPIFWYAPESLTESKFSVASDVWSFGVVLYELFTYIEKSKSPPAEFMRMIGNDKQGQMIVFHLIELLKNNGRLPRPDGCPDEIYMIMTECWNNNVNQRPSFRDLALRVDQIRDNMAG

SMILES | JAK 2 (pKi) (JAK2) | JAK 1 (pKi) (JAK1) | Tall-1 (pIC50) [1] | Caco Kp (Caco-2 cell monolayers) | JAK 3 (pKi) (JAK3) | JAK3 (pKi)-JAK1 (pKi) (JAK3) | Tyk 2 (pKi) (Tyk2)
C=CC(=O)N1CC(CCn2c(=O)ccc3cnc(Nc4ccc(-n5cccn5)cc4)nc32)C1 [Example 66] | E (E represents a pKi value of 7 or below (Ki of 100 nM or above)) | E (E represents a pKi value of 7 or below (Ki of 100 nM or above)) | B (B represents a pC50 value between 6.7 (included) and 7.5 (IC50 between 200 nM and 32 nM)) | C (C represents a value between 10×10^−6 and 30×10^−6 cm/sec) | B (B represents pKi value between 9 and 10 (Ki between 1 nM and 0.1 nM)) | A (A represents a value of 3 or above) | E (E represents a pKi value of 7 or below (Ki of 100 nM or above))
C=CC(=O)N1CC(CCn2c(=O)ccc3cnc(Nc4ccc(-n5ccnn5)cc4)nc32)C1 [Example 67] | E (E represents a pKi value of 7 or below (Ki of 100 nM or above)) | E (E represents a pKi value of 7 or below (Ki of 100 nM or above)) | B (B represents a pC50 value between 6.7 (included) and 7.5 (IC50 between 200 nM and 32 nM)) | B (B represents a value between 5×10^−6 and 10×10^−6 cm/sec) | B (B represents pKi value between 9 and 10 (Ki between 1 nM and 0.1 nM)) | A (A represents a value of 3 or above) | E (E represents a pKi value of 7 or below (Ki of 100 nM or above))
C=CC(=O)N1CC(CCn2c(=O)ccc3cnc(Nc4ccc(NS(C)(=O)=O)cc4)nc32)C1 [Example 69] | E (E represents a pKi value of 7 or below (Ki of 100 nM or above)) | E (E represents a pKi value of 7 or below (Ki of 100 nM or above)) | B (B represents a pC50 value between 6.7 (included) and 7.5 (IC50 between 200 nM and 32 nM)) | A (A represents a value below 5×10^−6 cm/sec) | A (A represents a pKi value≥10 (Ki≤0.1 nM)) | A (A represents a value of 3 or above) | E (E represents a pKi value of 7 or below (Ki of 100 nM or above))
C=CC(=O)N1CC(CCn2c(=O)ccc3cnc(Nc4ccc(N5CCN(C(=O)COC)CC5)cc4)nc32)C1 [Example 70] | E (E represents a pKi value of 7 or below (Ki of 100 nM or above)) | E (E represents a pKi value of 7 or below (Ki of 100 nM or above)) | B (B represents a pC50 value between 6.7 (included) and 7.5 (IC50 between 200 nM and 32 nM)) | A (A represents a value below 5×10^−6 cm/sec) | B (B represents pKi value between 9 and 10 (Ki between 1 nM and 0.1 nM)) | A (A represents a value of 3 or above) | E (E represents a pKi value of 7 or below (Ki of 100 nM or above))
C=CC(=O)N1CC(CCn2c(=O)ccc3cnc(Nc4ccc(N5CCN(C(=O)OC)CC5)cc4)nc32)C1 [Example 71] | E (E represents a pKi value of 7 or below (Ki of 100 nM or above)) | E (E represents a pKi value of 7 or below (Ki of 100 nM or above)) | B (B represents a pC50 value between 6.7 (included) and 7.5 (IC50 between 200 nM and 32 nM)) | B (B represents a value between 5×10^−6 and 10×10^−6 cm/sec) | B (B represents pKi value between 9 and 10 (Ki between 1 nM and 0.1 nM)) | A (A represents a value of 3 or above) | E (E represents a pKi value of 7 or below (Ki of 100 nM or above))
C=CC(=O)N1CC(CCn2c(=O)ccc3cnc(Nc4ccc(N5CCN(C(=O)CC#N)CC5)cc4)nc32)C1 [Example 72] | E (E represents a pKi value of 7 or below (Ki of 100 nM or above)) | E (E represents a pKi value of 7 or below (Ki of 100 nM or above)) | B (B represents a pC50 value between 6.7 (included) and 7.5 (IC50 between 200 nM and 32 nM)) | A (A represents a value below 5×10^−6 cm/sec) | B (B represents pKi value between 9 and 10 (Ki between 1 nM and 0.1 nM)) | A (A represents a value of 3 or above) | E (E represents a pKi value of 7 or below (Ki of 100 nM or above))
C=CC(=O)N1CC(CCn2c(=O)ccc3cnc(Nc4cccc(N5CCN(C(C)=O)CC5)c4)nc32)C1 [Example 78] | E (E represents a pKi value of 7 or below (Ki of 100 nM or above)) | E (E represents a pKi value of 7 or below (Ki of 100 nM or above)) | B (B represents a pC50 value between 6.7 (included) and 7.5 (IC50 between 200 nM and 32 nM)) | A (A represents a value below 5×10^−6 cm/sec) | B (B represents pKi value between 9 and 10 (Ki between 1 nM and 0.1 nM)) | A (A represents a value of 3 or above) | E (E represents a pKi value of 7 or below (Ki of 100 nM or above))
C=CC(=O)N1CCN(CCn2c(=O)ccc3cnc(Nc4ccc(CN5CCOCC5)cc4)nc32)CC1 [Example 80] | E (E represents a pKi value of 7 or below (Ki of 100 nM or above)) | E (E represents a pKi value of 7 or below (Ki of 100 nM or above)) | B (B represents a pC50 value between 6.7 (included) and 7.5 (IC50 between 200 nM and 32 nM)) | C (C represents a value between 10×10^−6 and 30×10^−6 cm/sec) | B (B represents pKi value between 9 and 10 (Ki between 1 nM and 0.1 nM)) | A (A represents a value of 3 or above) | E (E represents a pKi value of 7 or below (Ki of 100 nM or above))
C=CC(=O)N1CC(CCn2c(=O)ccc3cnc(Nc4ccc5[nH]ncc5c4)nc32)C1 [Example 82] | E (E represents a pKi value of 7 or below (Ki of 100 nM or above)) | E (E represents a pKi value of 7 or below (Ki of 100 nM or above)) | C (C represents a pIC50 value between 6 and 6.7 (IC50 between 1 μM and 200 nM)) | A (A represents a value below 5×10^−6 cm/sec) | B (B represents pKi value between 9 and 10 (Ki between 1 nM and 0.1 nM)) | A (A represents a value of 3 or above) | E (E represents a pKi value of 7 or below (Ki of 100 nM or above))
C=CC(=O)N1CC(CCn2c(=O)ccc3cnc(Nc4ccc5cn[nH]c5c4)nc32)C1 [Example 83] | E (E represents a pKi value of 7 or below (Ki of 100 nM or above)) | E (E represents a pKi value of 7 or below (Ki of 100 nM or above)) | C (C represents a pIC50 value between 6 and 6.7 (IC50 between 1 μM and 200 nM)) | A (A represents a value below 5×10^−6 cm/sec) | B (B represents pKi value between 9 and 10 (Ki between 1 nM and 0.1 nM)) | A (A represents a value of 3 or above) | E (E represents a pKi value of 7 or below (Ki of 100 nM or above))
